Experimental findings from ChEMBL document CHEMBL1201862, “PubChem BioAssay data set” (2004) are described below.

Assay in all cases: NCI tumour cell line growth inhibition, 48 h
In experiment [1] the test system is LOX IMVI.
In experiment [2] the test system is HOP-62.
The subject of experiment [3] is OVCAR-5.
Experiment [4] concerns HL-60.
In experiment [5] the test system is EKVX.
Experiment [6] relates to SK-MEL-2.
Experiment [7] concerns KM12.
Experiment [8] deals with OVCAR-4.
The test system of experiment [9] is MOLT-4.
For experiment [10], the system named is RPMI-8226.
The test system of experiment [11] is SR.
Experiment [12] concerns NCI/ADR-RES.
Experiment [13] concerns CAKI-1.
Experiment [14] has as its system SN12C.
The test system of experiment [15] is NCI-H226.
The subject of experiment [16] is SK-MEL-28.
Experiment [17] relates to OVCAR-8.
For experiment [18], the system named is MDA-N.
The test system of experiment [19] is DU-145.
The test system of experiment [20] is RXF 393.

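Assay format: 96-well plates, 48-hour exposure. Here, GI50 denotes the concentration required for 50% inhibition of growth.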 Active and inactive are the calls of the source. No stated cut-off is given here; in the data, active = GI50 up to about 1.1 µM and inactive = higher.

Consider `CN(C)c1nc(N)c(C#N)c(C#N)c1C#N`, for which the GI50 in experiment [1] was > 10 µM (inactive); in experiment [2] it was > 10 µM (inactive); in experiment [3], > 10 µM (inactive); in experiment [4], 2.21 µM (inactive); in [5] it was > 10 µM (inactive); in experiment [6], > 10 µM (inactive). The GI50 in [7] was > 10 µM (inactive); in experiment [8] it was > 10 µM (inactive); in experiment [9], 3.28 µM (inactive); in experiment [10], > 8.79 µM (inactive); in experiment [11], 3.42 µM (inactive); in experiment [12] it was > 10 µM (inactive). The GI50 in experiment [13], in experiment [14], in experiment [15], in experiment [16], in experiment [17] and in experiment [18] was > 10 µM (inactive) throughout. Further, the GI50 in [19] and in experiment [20] was > 10 µM (inactive) throughout.
Take `O=S(=O)(c1cccc(C(F)(F)F)c1)N1c2ccccc2-n2cccc2C1c1cccnc1` (stereo not given): the GI50 is 35.5 µM (inactive) in experiment [1]; > 43.6 µM (inactive) in [2]; > 50.5 µM (inactive) in experiment [3]; 1.1 µM (active) in experiment [4]; > 100 µM (inactive) in experiment [5]; 17.7 µM (inactive) in experiment [6]. For the same molecule, the GI50 is 19.2 µM (inactive) in [7]; 24.8 µM (inactive) in experiment [8]; 4.18 µM (inactive) in experiment [9]; 6.17 µM (inactive) in experiment [10]; 6.71 µM (inactive) in experiment [11]; 5.19 µM (inactive) in experiment [12]. The GI50 in experiment [13] is > 100 µM (inactive); in experiment [14], > 42.4 µM (inactive); in experiment [15], > 28.1 µM (inactive); in experiment [16], 29.4 µM (inactive); in [17], 44.3 µM (inactive); in experiment [18] it was 26.9 µM (inactive). The GI50 in experiment [19] was > 39.7 µM (inactive); in experiment [20] it was > 38.7 µM (inactive).
In the case of `CC(=O)OCC1OC(n2c(N)c(C#N)c(-c3ccccc3)c(C#N)c2=S)C(OC(C)=O)C(OC(C)=O)C1OC(C)=O` (stereo not given), the GI50 in experiment [1] was > 100 µM (inactive); in experiment [2] it was 11.6 µM (inactive); in experiment [3] it was > 100 µM (inactive); in experiment [4] it was > 100 µM (inactive); in [5] it was > 74.3 µM (inactive); in experiment [6], > 58.9 µM (inactive). Also, the GI50 in [7] was > 100 µM (inactive); in experiment [8], > 49.8 µM (inactive); in experiment [9], > 100 µM (inactive); in experiment [10], > 100 µM (inactive); in [11] it was > 100 µM (inactive); in [12], > 100 µM (inactive). Moreover, the GI50 in experiment [13] is 44.3 µM (inactive); in experiment [14], > 100 µM (inactive); in [15], > 61.4 µM (inactive); in experiment [16], > 100 µM (inactive); in experiment [17], 34.9 µM (inactive); in [18], > 100 µM (inactive). Besides, the figures for the GI50 in experiment [19] and in experiment [20] were > 100 µM (inactive) and 23.2 µM (inactive), respectively.
On to `C[C@H]1C2Cc3cc(O)ccc3[C@@]1(C)CCN2CCc1ccc(N)cc1`, for which the GI50 was 14.1 µM (inactive) in experiment [1]; 8.69 µM (inactive) in [2]; > 100 µM (inactive) in experiment [3]; 38.3 µM (inactive) in experiment [4]; > 100 µM (inactive) in experiment [5]; 41.9 µM (inactive) in [6]. Moreover, the GI50 in experiment [7] was 16.7 µM (inactive); in [8] it was 55.6 µM (inactive); in [9] it was 23.7 µM (inactive); in experiment [10], 28.4 µM (inactive); in [11], 21.6 µM (inactive); in experiment [12] it was 25.7 µM (inactive). Also, the GI50 is > 100 µM (inactive) in experiment [13]; 98.9 µM (inactive) in [14]; > 100 µM (inactive) in experiment [15]; 18.6 µM (inactive) in [16]; 7.98 µM (inactive) in experiment [17]; 20.7 µM (inactive) in [18]. Further, the GI50 in [19] was > 100 µM (inactive); in [20], 52.7 µM (inactive).
In the case of `C/C(=N\NC(N)=S)c1nc2cccnc2[nH]1`, the GI50 in [1] was 73.5 µM (inactive); in experiment [2] it was 67.3 µM (inactive); in experiment [3] it was 47.1 µM (inactive); in experiment [4], 32.6 µM (inactive); in experiment [5], 50 µM (inactive); in [6] it was > 100 µM (inactive). The GI50 in experiment [7] is 67.5 µM (inactive); in experiment [8], 25.6 µM (inactive); in [9] it was 34.8 µM (inactive); in [10], > 96.6 µM (inactive); in [11], 45.5 µM (inactive); in experiment [12] it was 38.5 µM (inactive). Further, the GI50 in experiment [13] is 33.5 µM (inactive); in [14], > 100 µM (inactive); in [15], > 56 µM (inactive); in experiment [16], > 88.9 µM (inactive); in experiment [17], > 67 µM (inactive); in experiment [18], > 100 µM (inactive). Also, the GI50 in [19] was 63.7 µM (inactive); in [20] it was > 100 µM (inactive).
Consider `[O-][N+]1=[N+]([O-])[C@@H](c2ccccc2)[C@H]1c1ccccc1`, for which the GI50 in experiment [1] is 15.3 µM (inactive); in [2], 18.7 µM (inactive); in experiment [3], 19.9 µM (inactive); in experiment [4], 2.05 µM (inactive); in experiment [5] it was 18.3 µM (inactive); in [6], 17.9 µM (inactive). The GI50 in [7] is 22.4 µM (inactive); in experiment [8] it was 25 µM (inactive); in experiment [9], 21.3 µM (inactive); in experiment [10], 4.48 µM (inactive); in [11], 18.4 µM (inactive); in experiment [12], 17.5 µM (inactive). In addition, the GI50 is 5.83 µM (inactive) in experiment [13]; 18 µM (inactive) in experiment [14]; 21.3 µM (inactive) in [15]; 16.6 µM (inactive) in [16]; 16.8 µM (inactive) in experiment [17]; 16.6 µM (inactive) in experiment [18]. In addition, the GI50 was 16.3 µM (inactive) in experiment [19] and 14.8 µM (inactive) in experiment [20].
As for `O=[N+]([O-])c1ccc(-n2nc3ccc4c(no[n+]4[O-])c3[n+]2[O-])c([N+](=O)[O-])c1`, the GI50 in experiment [1] was 1.77 µM (inactive); in [2], 3.77 µM (inactive); in experiment [3] it was 6.41 µM (inactive); in experiment [4], 1.95 µM (inactive); in experiment [5] it was 12.2 µM (inactive); in [6], 3.56 µM (inactive). Besides, the GI50 was 1.79 µM (inactive) in experiment [7]; 1.68 µM (inactive) in experiment [8]; 1.95 µM (inactive) in [9]; 2.29 µM (inactive) in experiment [10]; 1.91 µM (inactive) in experiment [11]; 3.16 µM (inactive) in experiment [12]. Besides, the GI50 is 2.42 µM (inactive) in experiment [13]; 2.56 µM (inactive) in experiment [14]; 8.24 µM (inactive) in experiment [15]; 2.51 µM (inactive) in [16]; 2.4 µM (inactive) in experiment [17]; 2.08 µM (inactive) in experiment [18]. The GI50 in experiment [19] was 5.56 µM (inactive); in experiment [20] it was 3.27 µM (inactive).
With `Cc1c(N)nc([C@H](CC(N)=O)NC[C@H](N)C(N)=O)nc1C(=O)N[C@H](C(=O)N[C@H](C)[C@@H](O)CC(=O)N[C@H](C(=O)NC(O[C@@H]1O[C@@H](C)[C@@H](N)[C@@H](O)[C@H]1O)C(O)c1nc(-c2nc(C(=O)NCCC[S+](C)C)cs2)cs1)[C@@H](C)O)[C@H](O[C@@H]1O[C@@H](CO)[C@@H](O)[C@H](O)[C@@H]1O[C@H]1O[C@H](CO)[C@@H](O)[C@H](OC(N)=O)[C@@H]1O)c1c[nH]cn1` (stereo not given in full), the GI50 in [1] was 15.2 µM (inactive); in experiment [2] it was 5.18 µM (inactive); in [3], > 100 µM (inactive); in experiment [4], > 100 µM (inactive); in experiment [5], > 100 µM (inactive); in experiment [6], > 100 µM (inactive). Also, the GI50 in [7] is 97.1 µM (inactive); in experiment [8], > 100 µM (inactive); in experiment [9] it was 38.6 µM (inactive); in experiment [10], > 100 µM (inactive); in [11], 0.0109 µM (active); in experiment [12], 33.3 µM (inactive). The GI50 in [13] was 73.8 µM (inactive); in experiment [14], > 100 µM (inactive); in experiment [15], 21 µM (inactive); in [16], > 100 µM (inactive); in [17], 48.9 µM (inactive); in experiment [18], > 100 µM (inactive). In addition, the figures for the GI50 in experiment [19] and in experiment [20] were > 100 µM (inactive) and 25.8 µM (inactive), respectively.
Regarding `CC1(C)CCC(C)(C)c2cc(C(=O)Nc3ccc(C(=O)O)cc3)ccc21`, the GI50 is 24.4 µM (inactive) in experiment [1]; 18.7 µM (inactive) in [2]; 32.3 µM (inactive) in experiment [3]; 3.52 µM (inactive) in [4]; 19.5 µM (inactive) in experiment [5]; 22.1 µM (inactive) in experiment [6]. Further, the GI50 in experiment [7] is 26.5 µM (inactive); in [8], 20.9 µM (inactive); in experiment [9], 24.9 µM (inactive); in experiment [10] it was 14.5 µM (inactive); in [11], 15 µM (inactive); in experiment [12] it was 19.9 µM (inactive). For the same molecule, the GI50 in [13] is 18.4 µM (inactive); in [14], 31.8 µM (inactive); in experiment [15] it was > 44.8 µM (inactive); in experiment [16], 40.3 µM (inactive); in experiment [17], 30.5 µM (inactive); in experiment [18] it was 22 µM (inactive). The values for the GI50 in experiment [19] and in [20] were 28.4 µM (inactive) and 7.62 µM (inactive), respectively.
